# In patent US20130035326A1 (AMBIT BIOSCIENCES CORPORATION, priority 2009, published 2013):
# Columns and labels:
# MV4-11 cells = assay: MV4-11 cell proliferation assay (Alamar Blue); assay type: cell-based; settings: Homo sapiens, MV4-11, 72 h, 3 days incubation
# In short: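 Viability readout: Alamar Blue fluorescence, ex 560/em 590 nm, 3 h after reagent addition, after 3-day exposure of 64,000 MV4-11 cells per well to a 9-point half-log compound series in 0.5% FBS Iscove's. IC50 from duplicate averages, as 50% proliferation inhibition relative to negative control.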
# CSF-1R kinase = target: T1, CSF-1R kinase (Homo sapiens, UniProt P07333); assay: Competition binding assay, CSF-1R Kd
# T1 construct: made in house; host or cells: T7 phage display or HEK-293 cells
# In short: (§1)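 Kinases, either T7 phage fusions or HEK-293-expressed and DNA-tagged, competed for immobilised biotinylated affinity ligand against test compound, 1 h at RT in binding buffer with 6 mM DTT. Bound kinase eluted with 0.5 μM free ligand and quantified by qPCR; Kd from 11-point threefold dilutions.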
# KIT kinase = target: T2, KIT kinase (Homo sapiens, UniProt P10721); assay: Competition binding assay, KIT Kd
# T2 construct: made in house; host or cells: T7 phage display or HEK-293 cells
# In short: as §1
# FLT3 kinase = target: T3, FLT3 kinase (Homo sapiens, UniProt P36888); assay: Competition binding assay, FLT3 Kd
# T3 construct: made in house; host or cells: T7 phage display or HEK-293 cells
# T3 sequence (P36888 27-993): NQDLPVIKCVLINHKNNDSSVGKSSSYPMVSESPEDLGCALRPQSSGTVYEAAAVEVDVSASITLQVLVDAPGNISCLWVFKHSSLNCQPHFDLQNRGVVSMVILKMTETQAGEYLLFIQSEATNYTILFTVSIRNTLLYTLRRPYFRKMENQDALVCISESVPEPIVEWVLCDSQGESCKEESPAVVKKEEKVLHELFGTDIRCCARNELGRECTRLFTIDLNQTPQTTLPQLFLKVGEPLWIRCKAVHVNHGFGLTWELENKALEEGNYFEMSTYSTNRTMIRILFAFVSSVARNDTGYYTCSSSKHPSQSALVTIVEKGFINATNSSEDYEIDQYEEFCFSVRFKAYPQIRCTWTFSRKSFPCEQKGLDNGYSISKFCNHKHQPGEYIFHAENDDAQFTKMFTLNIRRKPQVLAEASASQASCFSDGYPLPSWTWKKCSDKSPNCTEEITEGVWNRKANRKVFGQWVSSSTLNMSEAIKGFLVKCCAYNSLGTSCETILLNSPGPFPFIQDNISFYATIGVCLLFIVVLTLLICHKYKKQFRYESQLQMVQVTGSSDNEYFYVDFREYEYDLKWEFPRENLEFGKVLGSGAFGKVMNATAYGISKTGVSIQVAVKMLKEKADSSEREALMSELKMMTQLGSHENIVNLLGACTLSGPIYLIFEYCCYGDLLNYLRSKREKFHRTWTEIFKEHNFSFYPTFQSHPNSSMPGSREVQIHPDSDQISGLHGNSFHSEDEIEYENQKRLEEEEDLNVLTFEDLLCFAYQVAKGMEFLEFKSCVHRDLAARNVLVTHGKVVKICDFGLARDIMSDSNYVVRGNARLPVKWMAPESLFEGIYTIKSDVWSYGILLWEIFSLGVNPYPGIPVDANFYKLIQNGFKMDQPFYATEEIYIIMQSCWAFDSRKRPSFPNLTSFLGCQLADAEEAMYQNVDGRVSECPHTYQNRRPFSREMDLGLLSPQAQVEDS
# In short: as §1
# [1] = target: kinase panel containing either 359 or 386 distinct kinases; assay: Selectivity score S10 from competition binding against a panel of kinases; settings: compounds at 10 μM; panel of 386 distinct kinases
# In short: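 Compounds were tested at 10 μM in competition binding against T7 phage-fused or HEK-293-expressed DNA-tagged kinases with immobilized affinity ligands, 1 h at room temperature. Bound kinase was quantified by qPCR as percent of DMSO control; S10 is the fraction of distinct kinases (mutants excluded) with POC below 10.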
# T1 sequence (P07333 20-972): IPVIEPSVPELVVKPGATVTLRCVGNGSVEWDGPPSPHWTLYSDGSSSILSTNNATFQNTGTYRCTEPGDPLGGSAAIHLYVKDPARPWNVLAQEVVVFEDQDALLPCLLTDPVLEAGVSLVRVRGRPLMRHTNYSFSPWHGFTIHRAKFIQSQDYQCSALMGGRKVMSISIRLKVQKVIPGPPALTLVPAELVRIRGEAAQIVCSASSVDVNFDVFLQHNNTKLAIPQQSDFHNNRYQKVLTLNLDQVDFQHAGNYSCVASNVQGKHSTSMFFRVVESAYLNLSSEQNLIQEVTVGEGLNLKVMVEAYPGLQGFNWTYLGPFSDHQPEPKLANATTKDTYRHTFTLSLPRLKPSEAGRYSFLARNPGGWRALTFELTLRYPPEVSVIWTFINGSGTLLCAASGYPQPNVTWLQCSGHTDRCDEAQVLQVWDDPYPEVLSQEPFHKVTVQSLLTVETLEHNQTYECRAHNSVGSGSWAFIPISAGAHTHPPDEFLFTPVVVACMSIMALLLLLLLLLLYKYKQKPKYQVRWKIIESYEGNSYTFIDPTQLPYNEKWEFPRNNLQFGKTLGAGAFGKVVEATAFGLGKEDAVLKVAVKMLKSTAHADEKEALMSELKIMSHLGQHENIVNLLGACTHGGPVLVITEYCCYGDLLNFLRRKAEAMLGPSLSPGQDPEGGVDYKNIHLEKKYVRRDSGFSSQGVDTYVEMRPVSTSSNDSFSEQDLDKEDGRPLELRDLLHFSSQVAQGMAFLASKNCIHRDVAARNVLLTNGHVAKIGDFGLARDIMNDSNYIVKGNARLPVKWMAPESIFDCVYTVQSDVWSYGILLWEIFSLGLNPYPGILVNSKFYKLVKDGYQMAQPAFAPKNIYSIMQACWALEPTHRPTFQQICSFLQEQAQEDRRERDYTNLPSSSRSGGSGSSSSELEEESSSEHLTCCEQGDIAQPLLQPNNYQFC
# T2 sequence (P10721 26-976): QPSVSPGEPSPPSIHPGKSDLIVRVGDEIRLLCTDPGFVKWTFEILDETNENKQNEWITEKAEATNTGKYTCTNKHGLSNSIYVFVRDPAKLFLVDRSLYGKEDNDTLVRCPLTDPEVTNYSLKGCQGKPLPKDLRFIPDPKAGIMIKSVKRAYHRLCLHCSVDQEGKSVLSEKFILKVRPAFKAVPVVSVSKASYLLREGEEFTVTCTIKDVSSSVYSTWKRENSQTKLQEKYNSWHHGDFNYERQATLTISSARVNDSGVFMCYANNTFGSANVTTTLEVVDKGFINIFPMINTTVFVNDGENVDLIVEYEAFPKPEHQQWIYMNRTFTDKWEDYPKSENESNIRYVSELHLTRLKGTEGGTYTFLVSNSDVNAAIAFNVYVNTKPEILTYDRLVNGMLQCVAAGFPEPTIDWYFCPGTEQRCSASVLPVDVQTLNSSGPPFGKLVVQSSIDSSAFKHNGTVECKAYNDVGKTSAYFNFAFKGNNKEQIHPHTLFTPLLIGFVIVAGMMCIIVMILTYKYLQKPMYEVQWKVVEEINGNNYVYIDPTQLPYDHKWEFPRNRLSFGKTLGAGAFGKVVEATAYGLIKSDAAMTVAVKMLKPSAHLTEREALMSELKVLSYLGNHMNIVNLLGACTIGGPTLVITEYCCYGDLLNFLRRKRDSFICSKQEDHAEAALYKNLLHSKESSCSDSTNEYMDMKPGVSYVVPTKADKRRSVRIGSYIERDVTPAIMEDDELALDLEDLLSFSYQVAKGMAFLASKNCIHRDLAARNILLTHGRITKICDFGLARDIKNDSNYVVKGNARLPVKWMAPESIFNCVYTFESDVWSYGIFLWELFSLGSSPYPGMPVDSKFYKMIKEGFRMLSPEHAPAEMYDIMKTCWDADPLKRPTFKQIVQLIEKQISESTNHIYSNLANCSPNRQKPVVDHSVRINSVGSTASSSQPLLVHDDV
Compound,IC50 (MV4-11 cells) [nM],Kd (CSF-1R kinase) [nM],Kd (KIT kinase) [nM],Kd (FLT3 kinase) [nM],Kinase specificty: S(10)-386 panel [1]
"CC1(c2cc(NC(=O)Nc3ccc(-c4ccc(N)nc4)cn3)no2)CC1.CS(=O)(=O)O [Example 104, 6′-(3-(5-(1-methylcyclopropyl)isoxazol-3-yl)ureido)-3,3′-bipyridin-6-aminium methanesulfonate]",10 to 100,≤ 10,≤ 1,≤ 1,A (A≦0.1)
"CC(C)(C)c1cc(NC(=O)Cc2ccc(-c3ccc(NCCN4CCOCC4)nc3)cc2)no1.CS(=O)(=O)O [Example 105, 5-(4-(2-(5-tert-butylisoxazol-3-ylamino)-2-oxoethyl)phenyl)-N-(2-morpholinoethyl)pyridin-2-aminium methanesulfonate]",1 to 10,≤ 10,≤ 1,≤ 1,B (0.1<B≦0.2 nM)
"CC1(c2cc(NC(=O)Nc3ccc(-c4ccc(N)nc4)cc3)no2)CC1.CS(=O)(=O)O [Example 106, 5-(4-(3-(5-(1-methylcyclopropyl)isoxazol-3-yl)ureido)phenyl)pyridin-2-aminium methanesulfonate]",1 to 10,≤ 10,≤ 1,≤ 1,A (A≦0.1)
"CC(C)(C)c1cc(NC(=O)Nc2ccc(-c3ccc(NCCN4CCC(F)(F)CC4)nc3)cc2)no1.CS(=O)(=O)O [Example 107, 1-(2-((5-(4-(3-(5-(tert-butyl)isoxazol-3-yl)ureido)phenyl)pyridin-2-yl)amino)ethyl)-4,4-difluoropiperidin-1-ium methanesulfonate]",1 to 10,≤ 10,1 to 10,≤ 1,A (A≦0.1)
"CC(C)(C)c1cc(NC(=O)Cc2ccc(-c3ccc(NCCN4CCC(F)(F)CC4)nc3)cc2)no1.CS(=O)(=O)O [Example 108, 1-(2-(5-(4-(2-(5-tert-butylisoxazol-3-ylamino)-2-oxoethyl)phenyl)pyridin-2-ylamino)ethyl)-4,4-difluoropiperidinium methanesulfonate]",1 to 10,≤ 10,1 to 10,≤ 1,A (A≦0.1)
"CC1(c2cc(NC(=O)Nc3ccc(-c4ccc(N)nc4)cc3)no2)CC1(F)F.CS(=O)(=O)O (stereo not drawn) [Example 112, 5-(4-(3-(5-(2,2-difluoro-1-methylcyclopropyl)isoxazol-3-yl)ureido)phenyl)pyridin-2-aminium methanesulfonate]",1 to 10,≤ 10,1 to 10,≤ 1,A (A≦0.1)
"CN1C(C)(C)CC(=CCNc2ccc(-c3ccc(CC(=O)Nc4cc(C(C)(C)C)on4)cc3)cn2)CC1(C)C [Example 117, N-(5-tert-butylisoxazol-3-yl)-2-(4-(6-(2-(1,2,2,6,6-pentamethylpiperidin-4-ylidene)ethylamino)pyridin-3-yl)phenyl)acetamide]",≤ 1,≤ 10,1 to 10,≤ 1,B (0.1<B≦0.2 nM)
"CC(C)(F)c1cc(NC(=O)Cc2ccc(-c3ccc(NCCN4CCOCC4)nc3)cc2)on1 [Example 118, N-(3-(2-fluoropropan-2-yl)isoxazol-5-yl)-2-(4-(6-(2-morpholinoethylamino)pyridin-3-yl)phenyl)acetamide]",10 to 100,≤ 10,≤ 1,≤ 1,A (A≦0.1)
"CC(C)(C)c1cc(NC(=O)Cc2ccc(-c3ccc(N)nc3F)cc2)on1.CS(=O)(=O)O [Example 119, 5-(4-(2-(3-tert-butylisoxazol-5-ylamino)-2-oxoethyl)phenyl)-6-fluoropyridin-2-aminium methanesulfonate]",≤ 1,≤ 10,1 to 10,≤ 1,A (A≦0.1)
"CS(=O)(=O)O.Nc1ccc(-c2ccc(NC(=O)Nc3cc(C4(C(F)(F)F)CCC4)on3)cc2)cn1 [Example 121, 5-(4-(3-(5-(1-(trifluoromethyl)cyclobutyl)isoxazol-3-yl)ureido)phenyl)pyridin-2-aminium methanesulfonate]",≤ 1,10 to 100,1 to 10,1 to 10,A (A≦0.1)
"CC1(CCNc2ccc(-c3ccc(CC(=O)Nc4cc(C(C)(C)C)on4)cc3)cn2)COC1 [Example 122, N-(5-tert-butylisoxazol-3-yl)-2-(4-(6-(2-(3-methyloxetan-3-yl)ethylamino)pyridin-3-yl)phenyl)acetamide]",10 to 100,100 to 500,10 to 100,1 to 10,A (A≦0.1)
"CC(C)(C)c1cc(NC(=O)Cc2c(F)cc(-c3ccc(N)nc3)cc2F)no1.CS(=O)(=O)O [Example 123, 5-(4-(2-(5-tert-butylisoxazol-3-ylamino)-2-oxoethyl)-3,5-difluorophenyl)pyridin-2-aminium methanesulfonate]",≤ 1,≤ 10,1 to 10,≤ 1,B (0.1<B≦0.2 nM)

# Continued, values first:
IC50 (MV4-11 cells) [nM],Kd (CSF-1R kinase) [nM],Kd (KIT kinase) [nM],Kd (FLT3 kinase) [nM],Kinase specificty: S(10)-386 panel [1],Compound
≤ 1,≤ 10,1 to 10,≤ 1,B (0.1<B≦0.2 nM),"CC(C)(c1cc(NC(=O)Cc2ccc(-c3ccc(NCCN4CCOCC4)nc3)cc2)no1)C(F)(F)F.CS(=O)(=O)O [Example 109, 4-(2-(5-(4-(2-oxo-2-(5-(1,1,1-trifluoro-2-methylpropan-2-yl)isoxazol-3-ylamino)ethyl)phenyl)pyridin-2-ylamino)ethyl)morpholin-4-ium methanesulfonate]"
≤ 1,≤ 10,1 to 10,≤ 1,B (0.1<B≦0.2 nM),"CNc1ccc(-c2ccc(CC(=O)Nc3cc(C(C)(C)C)on3)cc2)cn1.CS(=O)(=O)O [Example 110, 5-(4-(2-(5-tert-butylisoxazol-3-ylamino)-2-oxoethyl)phenyl)-N-methylpyridin-2-aminium methanesulfonate]"
≤ 1,≤ 10,≤ 1,≤ 1,A (A≦0.1),"CCNc1ccc(-c2ccc(CC(=O)Nc3cc(C(C)(C)C)on3)cc2)cn1.CS(=O)(=O)O [Example 111, 5-(4-(2-(5-tert-butylisoxazol-3-ylamino)-2-oxoethyl)phenyl)-N-ethylpyridin-2-aminium methanesulfonate]"
≤ 1,≤ 10,1 to 10,≤ 1,B (0.1<B≦0.2 nM),"CS(=O)(=O)O.Cc1nc(-c2ccc(CC(=O)Nc3cc(C(C)(C)C)on3)cc2)cnc1N [Example 113, 5-(4-(2-(5-tert-butylisoxazol-3-ylamino)-2-oxoethyl)phenyl)-3-methylpyrazin-2-aminium methanesulfonate]"
≤ 1,≤ 10,1 to 10,1 to 10,B (0.1<B≦0.2 nM),"CC(C)(C)c1cc(NC(=O)Cc2ccc(-c3cnc(N)c(Cl)c3)cc2)no1.CS(=O)(=O)O [Example 115, 5-(4-(2-(5-tert-butylisoxazol-3-ylamino)-2-oxoethyl)phenyl)-3-chloropyridin-2-aminium methanesulfonate]"
≤ 1,≤ 10,1 to 10,≤ 1,B (0.1<B≦0.2 nM),"CC(C)(C)c1cc(NC(=O)Cc2ccc(-c3cnc(N)c(C(F)(F)F)c3)cc2)no1.CS(=O)(=O)O [Example 116, 5-(4-(2-(5-tert-butylisoxazol-3-ylamino)-2-oxoethyl)phenyl)-3-(trifluoromethyl)pyridin-2-aminium methanesulfonate]"
